SMILES strings stand for the structures.

This is an account of results in patent US6911454B1, “Method for potentiating primary drugs in treating multidrug resistant disease” (priority 1989, dated 2005).

One series concerns DX20 cancer cells. The experiment in a line: modified MTT assay, drug sensitivity of DX20 cells. The class given is cell-based, human. The text has this: The MES-SA/DX20 cell line was established according to the development methods of Sikic et al., Resistance to Antineoplastic Drugs, Chap. 3, CRC Press, Ed. David Kessel, pp. 37-47 (1989). In vitro drug sensitivity testing consisted of two assay models, the modified MTT assay (Mossman, J. Immunolog. Methods, Vol. 65, pp. 55-63, 1983) and the colonogenic assay. In addition to this, the combinations were investigated in vivo in nude mice bearing the DX20 cell line. The MTT assay was chosen because of its practical advantages in large-scale screening. The assay involved cellular conversion of tetrazolium salt to a colored formazan serving as a measurement of cell viability.
In a given experiment, culture media, 50 microliters, containing 8,000-25,000 cells, depending on the proliferation rate of the cell line, was pipetted into each well of several 96-well microtiter plates. The cells were allowed to attach overnight. […] The cytotoxic drug, also at a concentration below that previously established as an IC50, was then added at decreasing concentrations by 25% to several half plate sections. The cells were allowed to grown for 72 hours. 100 microliters of media was then removed and 25 microliters of 5 mg/ml MTT (Sigma, St. Louis, Mo.) in phosphate buffered saline was added to each well. The plates were kept in an incubator at 37° C. and 5% CO2. After 2-3 hours of incubation, the extraction buffer containing 20% w/v SDS and 50% DMF was added and the plates again incubated overnight. The plates were read at a test wavelength of 570 nm on a multiwell spectrophotometer (Model MR 700, Dynatech Laboratories, Alexandria, Va.). Each drug combination was tested in triplicate. Percent survival was defined as percent of optical density (OD) of the drug-treated wells to that of the control detected by the spectrophotometer.
The in vitro drug sensitivity testing of ethyl fangchinoline consisted of two assay models, the modified MTT (Mossman 1983) and a colony formation assay in which a direct measure was taken by quantitation of colony formation. The MTT assay was chosen because of its practical advantages in large scale screening. The assay involves cellular conversion of tetrozolium salt to a colored formazan serving as a measurement of cell viability.
Two human cell lines were chosen as the primary targets of study in reversing multiple-drug resistance. The MES-SA, a sarcoma, and its resistant subline, DX-20, were kindly donated by Dr. B. Sikic (U of Stanford, Stanford, Calif.). The A2780, an ovarian cancer, and its resistant subline, A2780-ad10, were provided by Roswell Park Memorial Inst. (Buffalo, N.Y.).
Culture media, 50 ul containing 8,000 to 25,000 cells depending on the proliferation rate of the line, was pipetted into each of 96 wells in a flat bottom tissue plate. The cells were incubated overnight to allow adherence. One hundred ul of ethyl fangchinoline, at a concentration below that previously established as an independent IC50, was added to each experimental well. […] The plates were then incubated for 72 hours before MTT was added and the analysis of O.D. values interpreted by a multi-plate scanner (MR700, Dynatech).
(In general: Tetrazolium assays rely on reduction of a dye to a coloured formazan, in cell work by metabolically active cells.)

In the next series the test system is DX20. The settings on record: FIG. 5; colony formation, 7 days; addition of d-tetrandrine.
Series [1] in a line: L.D.50 by single escalating injections. The class given is in vivo, mice. How it is done: In addition, the effects of d-Tetrandrine-(S) plus doxorubicin in Nu/Nu athymic mice inoculated with DX20 sarcoma cells, 76×resistant when compared to the parent MES-SA cells were examined. Four cohorts of nude animals bearing the DX20 tumor were treated in groups of 5 (control, doxorubicin, d-tetrandrine, and doxorubicin+d-tetrandrine). […] (See FIG. 6). Tumor size was calculated using the formula (4 Pi/3) X*Y*2Z. […] An L.D.50 dose of 260 mg/kg was also calculated by administering single escalating injections of the compound. Tables I & II and FIG. 6 give the actual measurements.

The subject of a further series is DX20 tumor. The experiment in a line: tumor measurements in nude mice bearing the DX20 tumor. The class given is in vivo. How it is done: (See FIG. 6). Tumor size was calculated using the formula (4 Pi/3) X*Y*2Z.
The study was done with 3-4 week old male balb-C nude mice. The animals were injected with DX20 1×10^7 cells.

Series [2] has as its system multidrug resistant human cancer (DX20). The class given is in vivo, mice. The conditions noted are these: d-tetrandrine 0.5, 1, 1.5 mg injections; doxorubicin 5.5 mg per kg; about one month. How it is done:
It is only important that they be administered sufficiently close together that the cancer is exposed to both simultaneously. For example, nude mice infected with a multidrug resistant human cancer were given 0.5 mg, 1 mg and 1.5 mg respectively in three separate injections, 72 hours apart.

Another series concerns A2780AD10. The conditions noted are these: FIG. 4; A2780AD10 versus parent A2780; addition of d-tetrandrine.
Where [3] appears, read: Day 7 Prior to Treatment (baseline).
The mark [4] stands for this setting: Day 24 After Treatment, d-tetrandrine days 6, 8, 10, doxorubicin 5.5 mg/kg day 12.

On to `COc1ccc2cc1Oc1ccc(cc1)C[C@H]1c3cc(c(OC)cc3CCN1C)Oc1c(OC)c(OC)cc3c1[C@H](C2)N(C)CC3` [TT, tetrandrine], for which the IC50 (as a rule, the concentration needed to halve the response being measured) in the series with DX20 cancer cells (DX20 cells, single agent, read-out: IC50 alone) turned out to be 4.3 µM. Moreover, the doxorubicin resistance reversal entry in the series on DX20 cancer cells (FIG. 1, DX20 versus parent MES-SA, addition of d-tetrandrine) is reported as “either partially or completely reversed”. In the series with DX20 cancer cells (FIG. 2, DX20 versus parent MES-SA, addition of d-tetrandrine), the vincristine-resistance reversal entry is reported as “either partially or completely reversed”. Besides, the vinblastine resistance reversal result with DX20 cancer cells (FIG. 3, DX20 versus parent MES-SA, addition of d-tetrandrine) is on record as “either partially or completely reversed”. Further, the “sensitivity of DX20 to doxorubicin versus parent (MES) cell line” value in the series on DX20 cancer cells (d-tetrandrine 1.0×10^−6 M combined with doxorubicin 1.2×10^−8 M) was “becomes more sensitive to doxorubicin than the parent (MES) cell line”. In the series with DX20, the doxorubicin-resistance reversal result is “either partially or completely reversed”. Besides, in series [1], the L.D.50 dose was determined as 260 mg/kg. In the series with DX20 tumor (setting [3]), the “Tumor Measurements Depth” value is given as 1.13, the “Tumor Measurements Length” value is 4.13 and the “Tumor Measurements Width” value is 3.75. In the series on DX20 tumor (setting [4]), the “Tumor Measurements Depth” value is listed as 24.66 and the “Tumor Measurements Width” value is 26.16. Besides, the tumor outcome in series [2] is listed as “very large tumors which were unabated”. In the series with A2780AD10, the doxorubicin resistance reversal entry is on record as “either partially or completely reversed”.
